Assays:
[1] = Helicity by circular dichroism (CD); assay type: physicochemical; conditions: usually percent helicity at 10 μM, 25° C.
Description: (§1) Assessment of biophysical parameters included measurement of helicity and thermal stability. Helicity was assessed by circular dichroism (“CD”) as follows. Briefly, CD spectra were obtained using a spectrometer equipped with a thermoelectric temperature controller. The spectra was obtained at 25° C. with 0.5 nanometer (nm) steps from 200 to 260 nm, with a 1.5 nm bandwith, and a typical averaging time of 4 seconds/step. After the cell/buffer blank was subtracted, spectra were smoothed using a third-order least-squares polynomial fit with a conservative window size to give random residuals. Raw ellipticity values were converted to mean residue ellipticity using standard methods, and plotted was the wavelength (from 200 to 260 nm) versus [θ]×10−3 (degrees cm^2/dmol). Percent helicity values were then calculated using standard methods (usually expressed as percent helicity at 10 μM, 25° C.). Assessment of thermal stability was performed by monitoring the change in CD signal at 222 nm as temperature was raised in 2° C. steps, with 1 minute equilibration times. The stability for each sample (e.g., HIV fusion inhibitor peptide), as represented by the Tm value, is the temperature corresponding to the maximum value of the first derivative of the thermal transition.

[2] = Thermal stability (Tm) by CD signal at 222 nm; assay type: physicochemical; conditions: CD at 222 nm, maximum of first derivative of thermal transition
Description: as §1

[3] = tested on: HIV-IIIB; conditions: 50% reduction in infectious virus titer
Description: Assessment of biological properties included measurement of antiviral activity against HIV-1 strains. […] These assays score for reduction of infectious virus titer employing the indicator cell lines MAGI or the CCR5 expressing derivative cMAGI. Both cell lines exploit the ability of HIV-1 tat to transactivate the expression of a β-galactosidase reporter gene driven by the HIV-LTR. The β-gal reporter has been modified to localize in the nucleus and can be detected with the X-gal substrate as intense nuclear staining within a few days of infection. The number of stained nuclei can thus be interpreted as equal to the number of infectious virions in the challenge inoculum if there is only one round of infection prior to staining. […] In the MAGI and cMAGI assays, a 50% reduction in infectious titer (Vn/Vo=0.5) is significant, and provides the primary cutoff value for assessing antiviral activity (“IC50” is defined as the concentration of active ingredient resulting in a 50% reduction in infectious virus titer). […] The number of infected cells for each control and peptide dilution was determined with the CCD-imager, and then the IC50 was calculated (expressed in μg/ml).

[4] = Intravenous pharmacokinetics in cynomolgus monkeys; assay type: in vivo, cynomolgus monkeys (Macaca fasicularis)
Description: For determining pharmacokinetic properties, an HIV fusion inhibitor peptide or a base sequence from which an HIV fusion inhibitor peptide is derived was dosed intravenously in cynomolgus monkeys (Macaca fasicularis) (other animal models may be used for determining pharmacokinetic properties, as known in the art). At various times post-dose, blood samples were drawn and plasma isolated by centrifugation. Plasma samples were stored frozen until analysis by LC-MS (liquid chromatography/mass spectrometry) in the electrospray, positive-ion mode. An HIV fusion inhibitor or base sequence was eluted from a C18 or C8 HPLC column with a gradient of acetonitrile in a buffer of 10 mM ammonium acetate, pH 6.8. At the time of analysis, plasma samples were deproteinated with either two or three volumes of acetonitrile containing 0.5% formic acid. Duplicate calibration standards in cynomolgus plasma samples were prepared at the same time as the samples and analyzed before and after the samples containing either HIV fusion inhibitor peptide or base sequence. Pharmacokinetic properties were calculated from the plasma concentration-time data using either mono-exponential or bi-exponential mathematical models. Models were derived by non-linear least squares optimization. A 1/C^2 weighting of concentrations was used. The following equations were used to calculate area-under the plasma concentration vs. time curve (AUC), total body clearance (Cl), and terminal elimination half-life (t ½).
Where A and B are intercepts and a and b are the rate constants of the exponential equations describing the distribution and elimination phases, respectively. When mono-exponential models were used, the “A” and “a” properties were eliminated.
Cl=Dose/AUC (expressed in L/K/hr)
t½=0.6903/b (expressed in hr)

[5] = tested on: 584.000030
Description: (§2) Assessment of biological properties included measurement of antiviral activity against HIV-1 strains. […] These assays score for reduction of infectious virus titer employing the indicator cell lines MAGI or the CCR5 expressing derivative cMAGI. Both cell lines exploit the ability of HIV-1 tat to transactivate the expression of a β-galactosidase reporter gene driven by the HIV-LTR. The β-gal reporter has been modified to localize in the nucleus and can be detected with the X-gal substrate as intense nuclear staining within a few days of infection. The number of stained nuclei can thus be interpreted as equal to the number of infectious virions in the challenge inoculum if there is only one round of infection prior to staining. […] In the MAGI and cMAGI assays, a 50% reduction in infectious titer (Vn/Vo=0.5) is significant, and provides the primary cutoff value for assessing antiviral activity (“IC50” is defined as the concentration of active ingredient resulting in a 50% reduction in infectious virus titer). […] The peptide (in the respective dilution) was added to the cMAGI or MAGI cells, followed by the virus inocula; and 24 hours later, an inhibitor of infection and cell-cell fusion (e.g., SEQ ID NO:2 (enfuvirtide)) was added to prevent secondary rounds of HIV infection and cell-cell virus spread. The cells were cultured for 2 more days, and then fixed and stained with the X-gal substrate to detect HIV-infected cells. The number of infected cells for each control and peptide dilution was determined with the CCD-imager, and then the IC50 was calculated (expressed in μg/ml).
(§3) In particular, in vitro resistance comparison studies were performed between the novel SEQ ID NO:9 compound of interest and established antiviral agent SEQ ID NO:2, described in detail as follows: MT2 cells were infected with virus isolates (IIIB, 030, 060 and 098) and cultured in increasing concentrations of SEQ ID NO:2 (enfuvirtide) or SEQ ID NO:9 to select for resistance. The initial peptide concentration was approximately 2 times the IC50 of each peptide against the corresponding wild type isolate. Peptide concentrations were maintained by adding fresh peptide every 1-3 days. Cultures were monitored for cytopathic effect (CPE) using standard techniques and when maximal CPE was achieved, a small aliquot of virus was used for subsequent rounds of infection. Peptide concentrations were increased 2 to 4-fold depending on the length of time in culture when compared to the growth rate of wild type virus. During the course of selection, peptide-free virus stocks were also collected. Peptide-free virus stocks were characterized for gp41 genotypic changes by dideoxy sequencing chemistries and phenotypic susceptibility was determined using a cMAGI infectivity assay.

[6] = tested on: 584.000060
Description: as §2, §3

[7] = tested on: 584.000098
Description: as §2, §3

[8] = tested on: IIIB; conditions: starting virus isolate IIIB
Description: as §2, §3

[9] = tested on: virus isolates (IIIB, 030, 060 and 098)
Description: as §2, §3

Ac-TTWEAWDRAIAEYAARIEALLRALQEQQEKNEAALREL-NH2 [SEQ ID NO:9, TTWEAWDRAIAEYAARIEALLRALQEQQEKNEAALREL]
Helicity (%) [1]: 61%
Tm (° C.) [2]: 62 °C
Antiviral Activity (μg/ml) HIV-IIIB IC50 [3]: <0.10 µg/mL
biological half-life relative to base sequence, in words ([4]; comment on Table 2): increased biological half-life
clearance ([4]; cynomolgus monkey, plasma, iv, dosed intravenously): < 0.333 mL/min/kg
half-life ([4]; cynomolgus monkey, plasma, iv, dosed intravenously, read-out: Half-life (t ½; hr) (converted)): 12 h
Fold Change in IC50 ([5]; starting virus isolate 584.000030): 4
Ending IC50 ([5]; starting virus isolate 584.000030, after selection): 0.113 µg/mL
Starting IC50 ([5]; starting virus isolate 584.000030, before selection): 0.028 µg/mL
Fold Change in IC50 ([6]; starting virus isolate 584.000060): 26
Ending IC50 ([6]; starting virus isolate 584.000060, after selection): 0.208 µg/mL
Starting IC50 ([6]; starting virus isolate 584.000060, before selection): 0.008 µg/mL
Fold Change in IC50 ([7]; starting virus isolate 584.000098): 14
Ending IC50 ([7]; starting virus isolate 584.000098, after selection): 0.521 µg/mL
Starting IC50 ([7]; starting virus isolate 584.000098, before selection): 0.037 µg/mL
Fold Change in IC50 [8]: 231
Ending IC50 ([8]; after selection): 2.768 µg/mL
Starting IC50 ([8]; before selection): 0.012 µg/mL
Fold Change in IC50 ([9]; Geometric Mean of four isolates): 24
Ending IC50 ([9]; Geometric Mean of four isolates, after selection): 0.429 µg/mL
Starting IC50 ([9]; Geometric Mean of four isolates, before selection): 0.018 µg/mL
barrier to development of resistance in vitro, in words ([9]; compared to SEQ ID NO:2): higher barrier to development of resistance in vitro

— patent US20090068243A1, “Novel formulations for delivery of antiviral peptide therapeutics” (priority 2007, published 2009)
